This note sets out measurements from BindingDB's records for doi:10.1124/jpet.105.084830 (University of Tokyo, 2005).

As a reminder, the Ki is a measure of affinity in units of concentration, obtained from inhibition or displacement.

For assay [1], the target named is Bile salt export pump (Homo sapiens, UniProt O95342).
The target of assay [2] is T1, Bile salt export pump (Rattus norvegicus, UniProt O70127).
T1 sequence (O70127 whole entry): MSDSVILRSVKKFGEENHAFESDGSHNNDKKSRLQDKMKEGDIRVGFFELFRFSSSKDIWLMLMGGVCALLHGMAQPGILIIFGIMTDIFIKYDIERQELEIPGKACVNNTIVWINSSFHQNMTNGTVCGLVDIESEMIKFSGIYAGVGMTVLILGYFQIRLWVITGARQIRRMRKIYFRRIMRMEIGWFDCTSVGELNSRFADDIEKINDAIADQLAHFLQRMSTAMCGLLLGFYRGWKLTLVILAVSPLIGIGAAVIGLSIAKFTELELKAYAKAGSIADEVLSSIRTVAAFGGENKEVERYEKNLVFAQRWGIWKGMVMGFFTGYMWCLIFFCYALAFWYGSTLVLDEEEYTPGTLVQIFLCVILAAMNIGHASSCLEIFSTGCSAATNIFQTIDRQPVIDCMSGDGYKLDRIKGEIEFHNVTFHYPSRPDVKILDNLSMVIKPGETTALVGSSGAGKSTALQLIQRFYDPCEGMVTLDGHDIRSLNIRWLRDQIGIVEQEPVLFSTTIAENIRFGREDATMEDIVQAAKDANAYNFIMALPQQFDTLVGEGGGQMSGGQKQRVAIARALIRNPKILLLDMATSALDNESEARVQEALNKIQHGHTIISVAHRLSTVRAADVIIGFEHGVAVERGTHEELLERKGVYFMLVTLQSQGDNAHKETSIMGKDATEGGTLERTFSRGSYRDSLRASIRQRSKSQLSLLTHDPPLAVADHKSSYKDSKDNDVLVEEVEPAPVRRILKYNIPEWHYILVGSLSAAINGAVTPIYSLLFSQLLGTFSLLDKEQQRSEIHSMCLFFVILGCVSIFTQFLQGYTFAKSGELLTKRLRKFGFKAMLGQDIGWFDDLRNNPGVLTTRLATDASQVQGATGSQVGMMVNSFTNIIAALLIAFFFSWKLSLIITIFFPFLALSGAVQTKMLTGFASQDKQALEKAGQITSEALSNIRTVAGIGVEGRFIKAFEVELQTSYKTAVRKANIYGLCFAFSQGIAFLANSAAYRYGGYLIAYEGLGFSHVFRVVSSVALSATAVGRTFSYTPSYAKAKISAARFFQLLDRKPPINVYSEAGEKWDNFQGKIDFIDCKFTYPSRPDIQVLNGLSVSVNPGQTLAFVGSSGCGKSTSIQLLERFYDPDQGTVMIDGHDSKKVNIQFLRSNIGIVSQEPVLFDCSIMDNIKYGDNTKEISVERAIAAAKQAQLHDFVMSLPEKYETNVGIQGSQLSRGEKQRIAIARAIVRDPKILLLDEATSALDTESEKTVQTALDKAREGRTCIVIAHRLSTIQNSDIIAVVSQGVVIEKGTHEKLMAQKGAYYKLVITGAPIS

Structures are written as SMILES. Some results are limits rather than exact numbers.

Chain of Bile salt export pump (Homo sapiens, UniProt O95342) (O95342 whole entry): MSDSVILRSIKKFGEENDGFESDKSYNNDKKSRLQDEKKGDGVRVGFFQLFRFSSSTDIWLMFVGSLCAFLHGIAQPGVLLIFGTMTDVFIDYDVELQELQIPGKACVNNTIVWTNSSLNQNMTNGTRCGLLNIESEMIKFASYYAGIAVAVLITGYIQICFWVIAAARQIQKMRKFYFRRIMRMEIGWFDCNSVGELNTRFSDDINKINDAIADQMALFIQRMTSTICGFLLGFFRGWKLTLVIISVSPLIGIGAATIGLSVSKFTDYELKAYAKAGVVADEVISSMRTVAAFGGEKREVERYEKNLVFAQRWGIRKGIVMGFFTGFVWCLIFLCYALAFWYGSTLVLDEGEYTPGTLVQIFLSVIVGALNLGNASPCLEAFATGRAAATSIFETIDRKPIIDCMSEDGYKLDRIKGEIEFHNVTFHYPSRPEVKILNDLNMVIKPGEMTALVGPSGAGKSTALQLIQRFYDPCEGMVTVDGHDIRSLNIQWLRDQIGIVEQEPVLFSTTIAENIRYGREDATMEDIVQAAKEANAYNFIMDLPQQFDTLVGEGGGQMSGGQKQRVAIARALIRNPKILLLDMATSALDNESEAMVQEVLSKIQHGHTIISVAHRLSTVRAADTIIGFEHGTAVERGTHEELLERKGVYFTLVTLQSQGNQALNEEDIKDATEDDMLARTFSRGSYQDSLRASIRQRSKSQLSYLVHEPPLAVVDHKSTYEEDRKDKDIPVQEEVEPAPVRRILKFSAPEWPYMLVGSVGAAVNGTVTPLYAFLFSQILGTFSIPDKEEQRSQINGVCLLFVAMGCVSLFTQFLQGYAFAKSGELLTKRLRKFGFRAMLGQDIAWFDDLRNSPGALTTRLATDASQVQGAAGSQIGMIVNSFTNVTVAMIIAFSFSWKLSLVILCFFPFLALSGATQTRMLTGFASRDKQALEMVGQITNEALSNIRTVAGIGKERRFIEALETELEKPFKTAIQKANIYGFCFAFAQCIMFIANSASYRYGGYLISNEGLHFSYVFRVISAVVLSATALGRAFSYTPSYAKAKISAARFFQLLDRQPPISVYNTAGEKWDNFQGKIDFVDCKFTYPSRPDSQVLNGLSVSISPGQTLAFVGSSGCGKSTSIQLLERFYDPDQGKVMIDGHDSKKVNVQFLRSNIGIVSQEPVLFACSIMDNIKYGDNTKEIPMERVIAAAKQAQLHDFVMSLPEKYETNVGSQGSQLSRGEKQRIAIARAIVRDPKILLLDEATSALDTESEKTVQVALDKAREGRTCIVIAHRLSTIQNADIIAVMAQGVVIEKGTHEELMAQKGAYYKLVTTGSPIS

With `CC(C)c1nc(N(C)S(C)(=O)=O)nc(-c2ccc(F)cc2)c1/C=C/[C@@H](O)C[C@@H](O)CC(=O)O`, the inhibitory constant (Ki) in assay [1] and in assay [2] was over 10 µM in each case. For `CC(C)c1c(C(=O)Nc2ccccc2)c(-c2ccccc2)c(-c2ccc(F)cc2)n1CC[C@@H]1C[C@@H](O)CC(=O)O1`, the inhibition constant (Ki) in assay [1] and in assay [2] was over 10 µM throughout. Turning to `CCC(C)(C)C(=O)O[C@H]1C[C@@H](C)C=C2C=C[C@H](C)[C@H](CC[C@@H]3C[C@@H](O)CC(=O)O3)[C@H]21` [2,2-dimethylbutyric acid, 8-ester with (4R,6R)-6-(2-((1S,2S,6R,8S,8aR)-1,2,6,7,8,8a-hexahydro-8-hydroxy-2,6-dimethyl-1-naphthyl)ethyl)tetrahydro-4-hydroxy-2H-pyran-2-one], the Ki in assay [2] is over 10 µM. `CC[C@H](C)C(=O)O[C@H]1C[C@H](O)C=C2C=C[C@H](C)[C@H](CC[C@@H](O)C[C@@H](O)CC(=O)O)[C@H]21` [(3R,5R)-7-[(1S,2S,6S,8S,8aR)-6-hydroxy-2-methyl-8-{[(2S)-2-methylbutanoyl]oxy}-1,2,6,7,8,8a-hexahydronaphthalen-1-yl]-3,5-dihydroxyheptanoic acid]: the inhibitory constant (Ki) in assay [1] and in assay [2] was over 10 µM each time. With `COCc1c(C(C)C)nc(C(C)C)c(/C=C/[C@@H](O)C[C@@H](O)CC(=O)O)c1-c1ccc(F)cc1` [(3R,5S,6E)-7-[4-(4-fluorophenyl)-5-(methoxymethyl)-2,6-bis(propan-2-yl)pyridin-3-yl]-3,5-dihydroxyhept-6-enoic acid], the Ki in assay [2] was over 10 µM.

In the case of `CC(C)n1c(/C=C/[C@@H](O)C[C@@H](O)CC(=O)O)c(-c2ccc(F)cc2)c2ccccc21` [CAS_93957-54-1], in assay [2], the Ki was over 10 µM. Take `O=C(O)C[C@H](O)C[C@H](O)/C=C/c1c(C2CC2)nc2ccccc2c1-c1ccc(F)cc1` [CAS_147511-69-1]: the Ki in assay [1] and in assay [2] was over 10 µM throughout. Regarding `CC(C)c1c(C(=O)Nc2ccccc2)c(-c2ccccc2)c(-c2ccc(F)cc2)n1CC[C@@H](O)C[C@@H](O)CC(=O)O` [CI 981], in assay [2], the inhibitory constant (Ki) was 7.57 µM.

Regarding `CCC(C)(C)C(=O)O[C@H]1C[C@@H](C)C=C2C=C[C@H](C)[C@H](CC[C@@H](O)C[C@@H](O)CC(=O)O)[C@H]21` [Simvastatin acid], the Ki in assay [1] and in assay [2] was over 10 µM throughout.
